Legend:
corn [1] = test: Test A preemergence; format: in vivo, Zea mays
Outline: (§1)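 Visual 0–100 rating (100 = complete control) taken about 10 d post-treatment relative to untreated checks. Preemergence: directed soil spray on sown loam/sand pots. Postemergence: seedlings 2–10 cm, 1–2 leaf. Non-phytotoxic solvent formulation with surfactant.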

wheat [2] = test: Test A postemergence; format: in vivo, Triticum aestivum
Outline: as §1

pigweed [3] = test: Test A preemergence; format: in vivo, Amaranthus retroflexus
Outline: as §1

giant foxtail [4] = test: Test A postemergence; format: in vivo, Setaria faberii
Outline: as §1

pigweed [5] = test: Test A postemergence; format: in vivo, Amaranthus retroflexus
Outline: as §1

barnyardgrass [6] = test: Test A preemergence; format: in vivo, Echinochloa crus-galli
Outline: as §1

Heteranthera limosa = test: Test B flooded paddy test; format: in vivo; conditions: Flood, 250 g ai/ha; 0 to 100 scale where 0 is no effect and 100 is complete control
Outline: (§2)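 Greenhouse flooded-pot test: compounds dosed into 3 cm standing water over 2-leaf plants, flood held constant. Rated visually after 13–15 days on 0–100 (complete control = 100); a dash marks no test result.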

barnyardgrass [7] = test: Test A postemergence; format: in vivo, Echinochloa crus-galli
Outline: as §1

wheat [8] = test: Test A preemergence; format: in vivo, Triticum aestivum
Outline: as §1

morningglory [9] = test: Test A postemergence; format: in vivo, Ipomoea spp.
Outline: as §1

morningglory [10] = test: Test A preemergence; format: in vivo, Ipomoea spp.
Outline: as §1

giant foxtail [11] = test: Test A preemergence; format: in vivo, Setaria faberii
Outline: as §1

barnyardgrass [12] = test: Test B flooded paddy test; format: in vivo, Echinochloa crus-galli; conditions: Flood, 250 g ai/ha; 0 to 100 scale where 0 is no effect and 100 is complete control
Outline: as §2

sedge, umbrella = test: Test B flooded paddy test; format: in vivo, Cyperus difformis; conditions: Flood, 250 g ai/ha; 0 to 100 scale where 0 is no effect and 100 is complete control
Outline: as §2

velvetleaf [13] = test: Test A preemergence; format: in vivo, Abutilon theophrasti
Outline: as §1

large (Lg) crabgrass [14] = test: Test A postemergence; format: in vivo, Digitaria sanguinalis
Outline: as §1

large (Lg) crabgrass [15] = test: Test A preemergence; format: in vivo, Digitaria sanguinalis
Outline: as §1

velvetleaf [16] = test: Test A postemergence; format: in vivo, Abutilon theophrasti
Outline: as §1

corn [17] = test: Test A postemergence; format: in vivo, Zea mays
Outline: as §1

rice = test: Test B flooded paddy test; format: in vivo, Oryza sativa; conditions: Flood, 250 g ai/ha; 0 to 100 scale where 0 is no effect and 100 is complete control
Outline: as §2

[18] = 500 g ai/ha, 0 to 100 scale where 0 is no effect and 100 is complete control
[19] = 125 g ai/ha, 0 to 100 scale, 0 no effect, 100 complete control
[20] = 125 g ai/ha, 0 to 100 scale where 0 is no effect and 100 is complete control
[21] = 500 g ai/ha, 0 to 100 scale, 0 no effect, 100 complete control, approx. 10 days
[22] = 500 g ai/ha, 0 to 100 scale, 0 no effect, 100 complete control

In the case of Clc1cnc(Oc2cccc(-c3cccnc3)c2-n2cc(Br)cn2)nc1 [Compound 290], the “Corn plant response rating (0 to 100 scale)” value (corn [1]; 125 g ai/ha) is reported as 0, the “Corn plant response rating” value (corn [1]; [18]) is reported as 0 and the “Plant response rating, Wheat” value (wheat [2]; [19]) is reported as 0. The “Plant response rating, Wheat” value (wheat [2]; [18]) was 0, the “Pigweed plant response rating (0 to 100 scale)” value (pigweed [3]; 125 g ai/ha) was 0 and the “Pigweed plant response rating” value (pigweed [3]; [18]) was 0. For the same molecule, the “Plant response rating, Foxtail, Giant” value (giant foxtail [4]; [19]) was 0, the “Plant response rating, Foxtail, Giant” value (giant foxtail [4]; [18]) was 10 and the “Plant response rating, Pigweed” value (pigweed [5]; [19]) was 10. For the same molecule, the “Plant response rating, Pigweed” value (pigweed [5]; [18]) was 20, the “Barnyardgrass plant response rating (0 to 100 scale, 0 is no effect, 100 is complete control)” value (barnyardgrass [6]; 125 g ai/ha) was 0 and the “Barnyardgrass plant response rating” value (barnyardgrass [6]; [18]) was 0. For the same molecule, the “Plant response rating, Ducksalad” value (Heteranthera limosa) was 0, the “Plant response rating, Barnyardgrass” value (barnyardgrass [7]; [19]) was 0 and the “Plant response rating, Barnyardgrass” value (barnyardgrass [7]; [18]) was 0. For the same molecule, the “Wheat plant response rating (0 to 100 scale)” value (wheat [8]; 125 g ai/ha) was 0, the “Wheat plant response rating” value (wheat [8]; [18]) was 0 and the “Plant response rating, Morningglory” value (morningglory [9]; [19]) was 0. The “Plant response rating, Morningglory” value (morningglory [9]; [18]) was 10, the “Morningglory plant response rating (0 to 100 scale)” value (morningglory [10]; 125 g ai/ha) was 0 and the “Morningglory plant response rating” value (morningglory [10]; [18]) was 0. The “Foxtail, Giant plant response rating (0 to 100 scale)” value (giant foxtail [11]; 125 g ai/ha) was 0, the “Foxtail, Giant plant response rating” value (giant foxtail [11]; [18]) was 10 and the “Plant response rating, Barnyardgrass” value (barnyardgrass [12]) was 0. The “Plant response rating, Sedge, Umbrella” value (sedge, umbrella) was 0, the “Velvetleaf plant response rating (0 to 100 scale)” value (velvetleaf [13]; 125 g ai/ha) was 0 and the “Velvetleaf plant response rating” value (velvetleaf [13]; [18]) was 0. The “Plant response rating, Crabgrass, Large” value (large (Lg) crabgrass [14]; [19]) was 0, the “Plant response rating, Crabgrass, Large” value (large (Lg) crabgrass [14]; [18]) was 10 and the “Crabgrass, Large plant response rating (0 to 100 scale)” value (large (Lg) crabgrass [15]; 125 g ai/ha) was 0. The “Crabgrass, Large plant response rating” value (large (Lg) crabgrass [15]; [18]) was 10, the “Plant response rating, Velvetleaf” value (velvetleaf [16]; [19]) was 10 and the “Plant response rating, Velvetleaf” value (velvetleaf [16]; [18]) was 30. For the same molecule, the “Plant response rating, Corn” value (corn [17]; [19]) was 0, the “Plant response rating, Corn” value (corn [17]; [18]) was 10 and the “Plant response rating, Rice” value (rice) was 0.
In the case of FC(F)(F)c1cnc(Oc2ccccc2-n2cc(Cl)cn2)nc1 [Compound 6], the “Corn plant response rating” value (corn [1]; [20]) is reported as 0, the “Corn plant response rating” value (corn [1]; [21]) is reported as 20 and the “Plant response rating, Wheat” value (wheat [2]; [20]) is reported as 40. The “Plant response rating, Wheat” value (wheat [2]; [22]) was 90, the “Pigweed plant response rating” value (pigweed [3]; [20]) was 100 and the “Pigweed plant response rating” value (pigweed [3]; [21]) was 100. The “Plant response rating, Foxtail, Giant” value (giant foxtail [4]; [20]) was 80, the “Plant response rating, Foxtail, Giant” value (giant foxtail [4]; [22]) was 100 and the “Plant response rating, Pigweed” value (pigweed [5]; [20]) was 100. The “Plant response rating, Pigweed” value (pigweed [5]; [22]) was 100, the “Barnyardgrass plant response rating” value (barnyardgrass [6]; [20]) was 20 and the “Barnyardgrass plant response rating” value (barnyardgrass [6]; [21]) was 90. For the same molecule, the “Plant response rating, Ducksalad” value (Heteranthera limosa) was 65, the “Plant response rating, Barnyardgrass” value (barnyardgrass [7]; [20]) was 40 and the “Plant response rating, Barnyardgrass” value (barnyardgrass [7]; [22]) was 100. The “Wheat plant response rating” value (wheat [8]; [20]) was 0, the “Wheat plant response rating” value (wheat [8]; [21]) was 30 and the “Plant response rating, Morningglory” value (morningglory [9]; [20]) was 40. For the same molecule, the “Plant response rating, Morningglory” value (morningglory [9]; [22]) was 70, the “Morningglory plant response rating” value (morningglory [10]; [20]) was 0 and the “Morningglory plant response rating” value (morningglory [10]; [21]) was 10. For the same molecule, the “Foxtail, Giant plant response rating” value (giant foxtail [11]; [20]) was 90, the “Foxtail, Giant plant response rating” value (giant foxtail [11]; [21]) was 100 and the “Plant response rating, Barnyardgrass” value (barnyardgrass [12]) was 0. For the same molecule, the “Plant response rating, Sedge, Umbrella” value (sedge, umbrella) was 55, the “Velvetleaf plant response rating” value (velvetleaf [13]; [20]) was 100 and the “Velvetleaf plant response rating” value (velvetleaf [13]; [21]) was 100. For the same molecule, the “Plant response rating, Crabgrass, Large” value (large (Lg) crabgrass [14]; [20]) was 50, the “Plant response rating, Crabgrass, Large” value (large (Lg) crabgrass [14]; [22]) was 100 and the “Crabgrass, Large plant response rating” value (large (Lg) crabgrass [15]; [20]) was 90. The “Crabgrass, Large plant response rating” value (large (Lg) crabgrass [15]; [21]) was 100, the “Plant response rating, Velvetleaf” value (velvetleaf [16]; [20]) was 100 and the “Plant response rating, Velvetleaf” value (velvetleaf [16]; [22]) was 100. For the same molecule, the “Plant response rating, Corn” value (corn [17]; [20]) was 20, the “Plant response rating, Corn” value (corn [17]; [22]) was 60 and the “Plant response rating, Rice” value (rice) was 15.

— patent US9695155B2, “Herbicidal substituted pyrimidinyloxy benzene compounds” (E. I. DU PONT DE NEMOURS AND COMPANY, priority 2013, dated 2017)
